Where two headings read alike, the source gives them in different places.
Assays:
S1P1 [1] = target: T1, S1P1 (Homo sapiens, UniProt P21453); experiment: Receptor binding assay, [33P]sphingosine 1-phosphate competition (SPA), S1P1
Procedure: Cells were suspended in 50 mM TRIS, pH 7.4, 2 mM EDTA, 250 mM Sucrose (buffer A) and 1× Complete protease inhibitor cocktail (Roche), and disrupted at 4° C. by N2 decompression using a cell disruption bomb (Parr Instrument). […] The pellet was then suspended in 10 mM HEPES, pH 7.4, 1 mM EDTA, 250 mM Sucrose (Buffer B), and 1× Complete EDTA-free protease inhibitor cocktail and homogenized using a potter. Membranes were flash frozen in liquid N2 and stored at −80° C.
[33P]sphingosine 1-phosphate (3000 Ci/mmol; American Radiolabeled Chemicals, Inc.) was added to test compounds in 20% DMSO by competition. […] Triplicate samples were averaged and normalized as percentage of inhibition relative to total binding (only DMSO in well) and non-specific binding (1000-fold excess of unlabeled S1P). Binding data were analyzed using the GraphPad Prism program or Genedata software.
Target sequence in this assay (P21453 whole entry, species assumed): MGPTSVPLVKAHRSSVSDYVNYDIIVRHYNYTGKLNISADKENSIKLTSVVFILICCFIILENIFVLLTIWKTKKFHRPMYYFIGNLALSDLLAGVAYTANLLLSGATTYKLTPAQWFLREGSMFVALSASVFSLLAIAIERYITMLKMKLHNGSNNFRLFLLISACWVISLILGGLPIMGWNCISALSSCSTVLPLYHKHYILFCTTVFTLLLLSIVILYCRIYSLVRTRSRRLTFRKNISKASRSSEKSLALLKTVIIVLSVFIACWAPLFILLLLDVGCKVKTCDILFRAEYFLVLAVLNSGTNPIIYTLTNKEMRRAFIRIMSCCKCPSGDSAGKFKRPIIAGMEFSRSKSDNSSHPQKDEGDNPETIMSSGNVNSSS

S1P3 = S1P3 (Homo sapiens, UniProt Q99500); experiment: Receptor binding assay, [33P]sphingosine 1-phosphate competition (SPA), S1P3
Procedure: Membranes were prepared from CHO cells expressing S1P1 or S1P3 for use in ligand and […] binding studies. Cells were suspended in 50 mM TRIS, pH 7.4, 2 mM EDTA, 250 mM Sucrose (buffer A) and 1× Complete protease inhibitor cocktail (Roche), and disrupted at 4° C. by N2 decompression using a cell disruption bomb (Parr Instrument). Following centrifugation at 1000 RPM for 10 min at 4° C., the supernatant was diluted (2×) in buffer A and centrifuged again at 19000 RPM for 75 min at 4° C. The pellet was then suspended in 10 mM HEPES, pH 7.4, 1 mM EDTA, 250 mM Sucrose (Buffer B), and 1× Complete EDTA-free protease inhibitor cocktail and homogenized using a potter. Membranes were flash frozen in liquid N2 and stored at −80° C.
[33P]sphingosine 1-phosphate (3000 Ci/mmol; American Radiolabeled Chemicals, Inc.) was added to test compounds in 20% DMSO by competition. Membranes and WGA SPA beads (GE Healthcare) were added to give a final volume of 100 μl in 96-well plates or 50 μl in 384-well plates with assay concentrations of 30 pM or 15 pM [33P]sphingosine 1-phosphate (respectively for S1P1 or S1P3), 50 mM HEPES, pH 7.5, 5 mM MgCl2, 100 mM NaCl, 0.4% fatty acid-free BSA, 1-5 μg/well of proteins in 96-well plates vs 0.6-1 μg/well of proteins in 384-well plates and 100 μg/well of WGA SPA beads in 96-well plates vs 75 μg/well of WGA SPA beads in 384-well plates. Binding was performed for 60 min at RT on a shaker and bound radioactivity was measured on a PerkinElmer 1450 MicroBeta counter. Triplicate samples were averaged and normalized as percentage of inhibition relative to total binding (only DMSO in well) and non-specific binding (1000-fold excess of unlabeled S1P). Binding data were analyzed using the GraphPad Prism program or Genedata software.

S1P1 [2] = target: T1, S1P1; experiment: S1P1 internalization assay in S1P1-U2OS cells (cell imaging); type: cell-based; conditions: U2OS cells expressing S1P1-EGFP, 1 hour
Procedure: Cellular functional assays: Internalization of Sphingosine-1-phosphate receptor 1 (S1P1) in a human Cell line (U2OS) in a 384-well format using a Cell Imaging analysis.
The S1P1 internalization assay was performed in 384 well plates (Corning® 384 black with clear bottom 3712) using S1P1-U2OS cells from Biolmage (C039A), a human epithelial cell line (Human Bone Osteosarcoma Epithelial Cells). These cells expressed the human S1P1 Receptor fused to the green fluorescent protein (EGFP). A standard CMV promoter (cytomegalovirus promoter) controls the expression of S1P1-EGFP and continuous expression was maintained by addition of geneticin to the culture medium.
S1P1Receptor desensitization induced the internalization of the membrane-localized S1P1-EGFP fusion protein to endosomes, which can be monitored by cell imaging analysis. The cells are plated in low serum medium (Dulbecco's Modified Eagle Medium (DMEM) with Glutamax-1 and high glucose, 1% Penicillin/Streptomycin, 1% Fetal Calf Serum (FCS), 0.5 mg/ml Geneticin) overnight.
The next day, S1P1-U2OS cells are incubated in 20 μl serum free medium (DMEM with Glutamax-1 and high glucose, 0.1% of fatty-acid free Bovin Serum Albumin (BSA), 10 mM, N′-2-Hydroxyethylpiperazine-N′-2 ethanesulphonic acid (HEPES) 1M) for 2 hours at 37° C./5% CO2. The cells are then treated with 4 μl compounds/agonists (6×/3% DMSO) for a total volume of 24 μl, and plates are incubated for 1 hour at 37° C./5% CO2.
S1P1-U2OS cells are fixed with 25 μl Paraformaldehyde 8% and stained with Hoechst 33345 dye (1:1000) for 20 minutes.
They were then washed 3 times with Phosphate Buffered Saline (PBS) and plates are sealed. The internalization of the receptor S1P1-EGFP is measured on Cellomics by calculating the “spot count per object” (“object” corresponds to nuclear and “spot” corresponds to S1P1-EGFP receptor). Internalization data were observed thanks to vHCS View and analyzed using Genedata® software.
Target sequence in this assay (P21453 whole entry): as the sequence (P21453 whole entry, species assumed) above

[3] = 96 well-plate, read-out: S1P1 binding Ki (M) (96 well-plate)
[4] = 96 well-plate, read-out: S1P3 binding Ki (M) (96 well-plate)
[5] = 384 well-plate, read-out: S1P1 binding Ki (M) (384 well-plate)
[6] = 384 well-plate, read-out: S1P3 binding Ki (M) (384 well-plate)

Chain of S1P3 (Q99500 whole entry, species assumed): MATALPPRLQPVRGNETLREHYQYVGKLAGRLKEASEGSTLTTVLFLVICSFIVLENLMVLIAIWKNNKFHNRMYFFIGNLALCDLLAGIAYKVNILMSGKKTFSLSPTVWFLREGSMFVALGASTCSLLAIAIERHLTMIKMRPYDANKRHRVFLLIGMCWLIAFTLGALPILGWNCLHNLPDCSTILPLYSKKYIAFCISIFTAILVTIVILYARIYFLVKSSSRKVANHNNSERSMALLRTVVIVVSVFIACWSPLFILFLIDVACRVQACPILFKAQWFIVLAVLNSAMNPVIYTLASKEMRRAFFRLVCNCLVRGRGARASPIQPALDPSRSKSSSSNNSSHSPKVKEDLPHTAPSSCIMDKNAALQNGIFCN

Row | Structure (SMILES) | Ki (S1P1 [1]; [3]) [M] | Ki (S1P3; [4]) [M] | EC50 (S1P1 [2]) [nM] | Ki (S1P1 [1]; [5]) [M] | Ki (S1P3; [6]) [M]
1 | CN(CC(=O)O)Cc1cccc(-c2noc(-c3ccc(-c4ccccc4)c(C(F)(F)F)c3)n2)c1 [Example 68] | 3.57e-10 | 1.09e-07 | 11.2 | – | –
2 | Cc1cc(-c2nc(-c3ccc(CN(C)CC(=O)O)cc3Cl)no2)ccc1-c1ccccc1C(F)(F)F [Example 153, 2-((3-chloro-4-(5-(2-methyl-2′-(trifluoromethyl)biphenyl-4-yl)-1,2,4-oxadiazol-3-yl)benzyl)(methyl)amino)acetic acid] | – | – | 50.9 | 3.32e-09 | 7.5e-06
3 | CCOc1cc(-c2nc(-c3ccc(CN(C)CC(=O)O)cc3)no2)ccc1-c1ccccc1C(F)(F)F [Example 115, N-(4-{5-[2-ethoxy-2′-(trifluoromethyl)biphenyl-4-yl]-1,2,4-oxadiazol-3-yl}benzyl)-N-methylglycine] | – | 6.68e-07 | 9.03 | 2.15e-09 | 2.21e-06
4 | COCc1cc(-c2nc(-c3ccc(CN(C)CC(=O)O)c(F)c3)no2)ccc1-c1ccccc1C(F)(F)F [Example 95, N-(2-fluoro-4-{5-[2-(methoxymethyl)-2′-(trifluoromethyl)biphenyl-4-yl]-1,2,4-oxadiazol-3-yl}benzyl)-N-methylglycine] | 4.26e-10 | 6.5e-07 | 13.9 | 3.67e-09 | 1.03e-06
5 | Cc1ccccc1-c1ccc(-c2nc(-c3cc(F)c(CN(C)CC(=O)O)c(F)c3)no2)cc1C(F)(F)F [Example 148, 2-((2,6-difluoro-4-(5-(2′-methyl-2-(trifluoromethyl)biphenyl-4-yl)-1,2,4-oxadiazol-3-yl)benzyl)(methyl)amino)acetic acid] | – | – | 24.7 | 2.38e-09 | 8.34e-07
6 | COCCN(CC(=O)O)Cc1ccc(-c2noc(-c3ccc(-c4ccccc4C)c(C(F)(F)F)c3)n2)cc1 [Example 138, N-(2-methoxyethyl)-N-(4-{5-[2′-methyl-2-(trifluoromethyl)biphenyl-4-yl]-1,2,4-oxadiazol-3-yl}benzyl)glycine] | – | – | 26.1 | 5.16e-09 | 4.79e-07
7 | Cc1ccccc1-c1ccc(-c2nc(-c3ccc(CN(C)CCCC(=O)O)cc3)no2)cc1C(F)(F)F [Example 116, 4-[methyl(4-{5-[2′-methyl-2-(trifluoromethyl)biphenyl-4-yl]-1,2,4-oxadiazol-3-yl}benzyl)amino]butanoic acid] | – | 3.33e-07 | 3.65 | 1.33e-09 | 1.31e-06
8 | Cc1ccccc1-c1ccc(-c2nc(-c3ccc(CN(C)CCC(=O)O)c(F)c3)no2)cc1C(F)(F)F [Example 71, N-(2-fluoro-4-{5-[2′-methyl-2-(trifluoromethyl)biphenyl-4-yl]-1,2,4-oxadiazol-3-yl}benzyl)-N-methyl-beta-alanine] | – | 1.31e-07 | – | – | –
9 | CN(CC(=O)O)Cc1cc(F)cc(-c2noc(-c3ccc(-c4ccccc4)c(C(F)(F)F)c3)n2)c1 [Example 67] | 2.31e-10 | 3.69e-08 | 11.9 | – | –
10 | Cc1ccccc1-c1ccc(-c2nc(-c3cc(F)cc(CN(C)CC(=O)O)c3)no2)cc1C(F)(F)F [Example 64, N-(3-fluoro-5-{5-[2′-methyl-2-(trifluoromethyl)biphenyl-4-yl]-1,2,4-oxadiazol-3-yl}benzyl)-N-methylglycine] | 2.96e-10 | 3.68e-08 | 8.11 | – | –
11 | Cc1ccccc1-c1ccc(-c2nc(-c3ccc(CN(C)CC(=O)O)c(Cl)c3)no2)cc1C(F)(F)F [Example 129, 2-((4-(5-(2-(trifluoromethyl)-2′-methylbiphenyl-4-yl)-1,2,4-oxadiazol-3-yl)-2-chlorobenzyl)(methyl)amino)acetic acid] | – | – | 23.3 | 5.33e-09 | 9.76e-07
12 | COCc1cc(-c2nc(-c3cccc(CN(C)CC(=O)O)c3)no2)ccc1-c1ccc(F)cc1C(F)(F)F [Example 50, N-(3-{5-[4′-fluoro-2-(methoxymethyl)-2′-(trifluoromethyl)biphenyl-4-yl]-1,2,4-oxadiazol-3-yl}benzyl)-N-methylglycine] | 8.49e-10 | 7.71e-07 | 25.3 | 1.24e-08 | 1.18e-06
13 | Cc1cc(-c2nc(-c3cccc(CN(C)CC(=O)O)c3)no2)ccc1-c1ccccc1C(F)(F)F [Example 101, N-methyl-N-(3-{5-[2-methyl-2′-(trifluoromethyl)biphenyl-4-yl]-1,2,4-oxadiazol-3-yl}benzyl)glycine] | – | 9.43e-06 | 69.3 | 5.63e-09 | 6.59e-06
14 | Cc1cc(-c2nc(-c3ccc(CN(C)CC(=O)O)cc3)no2)ccc1-c1ccccc1C(F)(F)F [Example 100, N-methyl-N-(4-{5-[2-methyl-2′-(trifluoromethyl)biphenyl-4-yl]-1,2,4-oxadiazol-3-yl}benzyl)glycine] | 1.04e-09 | 9.43e-06 | 56.1 | 3.49e-09 | 9.67e-06
15 | Cc1cc(-c2nc(-c3ccc(CN(C)CC(=O)O)c(F)c3F)no2)ccc1-c1ccccc1C(F)(F)F [Example 152, 2-((2,3-difluoro-4-(5-(2-methyl-2′-(trifluoromethyl)biphenyl-4-yl)-1,2,4-oxadiazol-3-yl)benzyl)(methyl)amino)acetic acid] | – | – | 68.4 | 3.71e-09 | 1.25e-05
16 | CCc1ccccc1-c1ccc(-c2nc(-c3ccc(CN(C)CC(=O)O)c(F)c3)no2)cc1C(F)(F)F [Example 110, N-(4-{5-[2′-ethyl-2-(trifluoromethyl)biphenyl-4-yl]-1,2,4-oxadiazol-3-yl}-2-fluorobenzyl)-N-methylglycine] | – | – | 56.7 | 6.22e-09 | –
17 | Cc1ccccc1-c1ccc(-c2nc(-c3cccc(CN(CC(=O)O)C(C)C)c3)no2)cc1C(F)(F)F [Example 117, (Isopropyl-{3-[5-(2′-methyl-2-trifluoromethyl-biphenyl-4-yl)-[1,2,4]oxadiazol-3-yl]-benzyl}-amino)-acetic acid] | – | – | 50.4 | 3.24e-09 | –
18 | CN(CC(=O)O)Cc1ccc(-c2noc(-c3ccc(-c4ccccc4C(F)(F)F)c(Cl)c3)n2)cc1 [Example 135] | – | – | 26.1 | 2.63e-09 | –
19 | Cc1ccccc1-c1ccc(-c2nc(-c3ccc(Cl)c(CN(C)CC(=O)O)c3)no2)cc1C(F)(F)F [Example 111, N-(2-chloro-5-{5-[2′-methyl-2-(trifluoromethyl)biphenyl-4-yl]-1,2,4-oxadiazol-3-yl}benzyl)-N-methylglycine] | – | – | 45.9 | 3.68e-09 | –
